# “Also recorded” adds a separate entry of the source.
# Legend:
# [1] = biological target: T1, DAT (h) (antagonist radioligand) (Homo sapiens, UniProt Q01959); assay: Radioligand binding panel (Eurofins CEREP), DAT; conditions: % inhibition of control specific binding
# T1 construct: Eurofins CEREP (contract study 100014859)
# Experimental: Lauflumide is tested at 10^-5 M, calculated as a % inhibition of control specific binding of a radioactively labeled ligand specific for each target.
# This binding profile panel was broadly defined with roughly an equal number of selective, central and peripheral therapeutically relevant targets, including native animal tissues, radioligands and specific enzymes involved in cell cycle regulation in accordance with Eurofins Standard Operating Procedure (www.eurofins.fr).
# For radioligand binding experiments, the half maximal inhibitory concentration (IC50) and the half maximal effective concentration (EC50) values were determined (via computer software) by nonlinear regression analysis of the competition curves using Hill equation curve fitting. The inhibition constants (Ki) were calculated using the Cheng-Prusoff equation (Ki=IC50/(1+(L/KD)), where L is the concentration of radioligand in the assay, and KD is the affinity of the radioligand for the receptor.
# The results are expressed as a % control specific binding ([measured specific binding/control specific binding]×100) and as a % inhibition of control specific binding (100−[(measured specific binding/control specific binding)×100]) obtained in the presence of the test compounds. […]
# [2] = system: Rat model of severe fatigue; assay: Rat model of severe fatigue (sleep deprivation): recording of circadian locomotor activity; type: in vivo, Rats, Sprague-Dawley; conditions: for Period after administration during which the distance travelled was dramatically increased: 2-h period analysis; for Distance travelled during the 12-h dark phase / Total distance travelled during the full 24-h period / Difference of distance travelled between the dark phase and the light phase / Distance travelled during the 12-h light phase: days 1, 2 and 3
# Experimental: In the following example, Lauflumide is also called NLS-4.
# Animals are individually housed in transparent polycarbonate cages (1354G Eurostandard Type IV cage, Tecniplast, Italy, 595×380×200 mm, floor area=1820 cm^2) filled with water (23±1° C.) to a height of 1.5 cm. A platform (5 cm height, 6.5 cm diameter) was located at the center of the cage. Animals can stay on the platform in order to stay dry but falls from it when it falls in deep sleep. […] During this period, animals were placed in a modified light/dark cycle with variable durations of the light and dark periods which change every day. This procedure is intended to disrupt the circadian rhythm.
# The Sham group was housed in normal condition for the same period under a 12/12 h light/dark cycle.
# After the end of the fatigue period, animals were placed in transparent polycarbonate cages (Type E, Iffa Credo, France, 450×300×200 mm, floor area=1032 cm^2), under a 12 h/12 h cycle. Cages were covered with a stainless steel grid in which food and a bottle are placed. A stainless steel removable divider separated food and water. The cages were placed in infrared photobeam detection systems (Acti-track, LSI Leticca, Panlab) allowing to record continuously the distance travelled in the cage. Locomotor activity was recorded continuously for 3 days. The test started at the beginning of the dark phase of the light/dark cycle.
# Seventy-six animals were subjected to the fatigue procedure and to the tests as described above. Twelve animals (Sham group) were housed in standard condition.
# After the end of the Fatigue procedure, animals were divided into 10 groups which received before tests (total: 3 administrations) a per-os (p.o., oral gavage) administration of: • Sham (no fatigue) group (N=12): Vehicle. • Control group (N=11): Vehicle. • Modafinil 32 (N=10): modafinil (32 mg/kg). • Modafinil 64 (N=10): modafinil (64 mg/kg). • Modafinil 128 (N=5): modafinil (128 mg/kg). • NLS-4 16 (N=5): NLS-4 (16 mg/kg). • NLS-4 32 (N=10): NLS-4 (32 mg/kg). • NLS-4 64 (N=10): NLS-4 (64 mg/kg). • NLS-4 128 (N=10): NLS-4 (128 mg/kg). • NLS-4 256 (N=5): NLS-4 (256 mg/kg).
# Read-out: distance travelled during 24-h periods, 12-h dark and light periods and during 2-h periods.
# Data are expressed as mean and standard error of mean (SEM).
# Statistical analyses: Student's t test, repeated measure ANOVA.
# A difference is considered statistically significant at p≤0.05.
# [3] = 16 mg/kg p.o., vs. Control (fatigue) group
# [4] = 16 mg/kg p.o., vs. Modafinil 32 group (32 mg/kg)
# [5] = 16 mg/kg p.o., vs. Modafinil 64 group (64 mg/kg)
# [6] = 16 mg/kg p.o., vs. Sham (no fatigue) group, listed as NLS-4
# [7] = 32 mg/kg p.o., vs. Control (fatigue) group
# [8] = 32 mg/kg p.o., vs. Sham (no fatigue) group
# [9] = 64 mg/kg p.o., vs. Control (fatigue) group
# [10] = 64 mg/kg p.o., vs. Sham (no fatigue) group
# [11] = 128 mg/kg p.o., vs. Control (fatigue) group
# [12] = 128 mg/kg p.o., vs. Sham (no fatigue) group
# [13] = 256 mg/kg p.o., vs. Control (fatigue) group
# [14] = 256 mg/kg p.o., vs. Sham (no fatigue) group
# T1 sequence (Q01959 whole entry): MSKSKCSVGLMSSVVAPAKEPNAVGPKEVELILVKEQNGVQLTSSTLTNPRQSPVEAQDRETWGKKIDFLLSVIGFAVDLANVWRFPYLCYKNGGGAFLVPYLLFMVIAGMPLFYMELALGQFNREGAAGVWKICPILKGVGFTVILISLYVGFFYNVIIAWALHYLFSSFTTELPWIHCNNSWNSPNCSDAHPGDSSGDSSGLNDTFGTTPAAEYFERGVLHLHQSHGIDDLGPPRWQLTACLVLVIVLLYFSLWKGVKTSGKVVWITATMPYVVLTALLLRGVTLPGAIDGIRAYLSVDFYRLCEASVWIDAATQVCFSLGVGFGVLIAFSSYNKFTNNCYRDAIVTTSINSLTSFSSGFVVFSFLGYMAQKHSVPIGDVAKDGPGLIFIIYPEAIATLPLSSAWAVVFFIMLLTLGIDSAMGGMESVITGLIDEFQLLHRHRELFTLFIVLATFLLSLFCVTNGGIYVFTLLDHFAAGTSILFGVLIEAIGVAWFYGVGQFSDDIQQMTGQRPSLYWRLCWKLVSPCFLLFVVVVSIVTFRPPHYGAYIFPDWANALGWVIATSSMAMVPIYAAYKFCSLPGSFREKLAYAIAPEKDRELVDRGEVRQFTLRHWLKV
structure (smiles),measurement,setting,value
"NC(=O)C[S@@+]([O-])C(c1ccc(F)cc1)c1ccc(F)cc1 [Lauflumide, 2-[(R)-((bis(4-fluorophenyl)methane)sulfinyl)]acetamide]",% Inhibition at 10^−5M,[1],84.4%
same,"Dose reducing the impairment of circadian rhythm, relative to modafinil",[2]; 16 mg/kg NLS-4 vs. 64 mg/kg modafinil,four times lower
same,Increase in locomotor activity compared with modafinil (32 mg/kg),[2]; 16 mg/kg p.o.,significantly higher
same,Increase in locomotor activity compared with modafinil (64 mg/kg),[2]; 16 mg/kg p.o.,of the same magnitude
same,Motor activity during the first 2-h periods following the dosing,[2]; 16 mg/kg p.o.,increased
same,Period after administration during which the distance travelled was dramatically increased,[2]; 16 mg/kg p.o.,2 h
same,Distance travelled during the 12-h dark phase,[2]; [3],higher
same,Total distance travelled during the full 24-h period,[2]; [3],higher
same,Difference of distance travelled between the dark phase and the light phase,"[2]; 16 mg/kg p.o., vs. Control (fatigue) group, listed as NLS-4",higher or tended to be higher; also recorded: increased
same,Difference of distance travelled between the dark phase and the light phase,[2]; [4],higher than the Modafinil 32 group on days 2 and 3 only
same,Distance travelled during the 12-h light phase,[2]; [4],higher than the Modafinil 32 group during the dark period on day 3 only and during the light period on day 1 only
same,Total distance travelled during the full 24-h period,[2]; [4],higher than the Modafinil 32 group on day 3 only
same,Difference of distance travelled between the dark phase and the light phase,[2]; [5],not significantly different
same,Distance travelled during the 12-h dark phase,[2]; [5],not significantly different
same,Distance travelled during the 12-h light phase,[2]; [5],not significantly different
same,Total distance travelled during the full 24-h period,[2]; [5],not significantly different
same,Total distance travelled during the full 24-h period,"[2]; 16 mg/kg p.o., vs. Sham (no fatigue) group",not significantly different
same,Difference of distance travelled between the dark phase and the light phase,[2]; [6],increased the distance travelled in comparison with the Sham group during day 3 only; also recorded: higher than the Sham group on day 3 only
same,Distance travelled during the 12-h dark phase,[2]; [6],increased the distance travelled in comparison with the Sham group during the light phase on day 1 and during the dark phase on day 3; also recorded: higher than the Sham group during the dark period on day 3 only
same,Distance travelled during the 12-h light phase,[2]; [6],increased the distance travelled in comparison with the Sham group during the light phase on day 1 and during the dark phase on day 3; also recorded: higher than the Control group during the light periods on day 1 only
same,Period after administration during which the distance travelled was dramatically increased,[2]; 32 mg/kg p.o.,8 h
same,Distance travelled during the 12-h dark phase,[2]; [7],higher
same,Distance travelled during the 12-h light phase,[2]; [7],not significantly different
same,Total distance travelled during the full 24-h period,[2]; [7],higher
same,Difference of distance travelled between the dark phase and the light phase,"[2]; 32 mg/kg p.o., vs. Control (fatigue) group, listed as NLS-4",higher or tended to be higher; also recorded: increased
same,Difference of distance travelled between the dark phase and the light phase,[2]; [8],increased the distance travelled in comparison with the Sham group during day 3 only
same,Distance travelled during the 12-h dark phase,[2]; [8],"increased the distance travelled in comparison with the Sham group during the light phase on days 1, 2 and 3, and during the dark phase on days 2 and 3"
same,Distance travelled during the 12-h light phase,[2]; [8],"increased the distance travelled in comparison with the Sham group during the light phase on days 1, 2 and 3, and during the dark phase on days 2 and 3"
same,Total distance travelled during the full 24-h period,[2]; [8],"increased the distance travelled in comparison with the Sham group during days 1, 2 and 3"
same,Distance travelled during the 12-h dark phase,[2]; [9],higher
same,Distance travelled during the 12-h light phase,[2]; [9],"higher for the NLS-4 64 group than for the Control group during the dark phase on days 1, 2 and 3 and during the light phase on day 3 only"
same,Total distance travelled during the full 24-h period,[2]; [9],higher
same,Difference of distance travelled between the dark phase and the light phase,"[2]; 64 mg/kg p.o., vs. Control (fatigue) group, listed as NLS-4",higher or tended to be higher; also recorded: increased
same,Distance travelled during the 12-h dark phase,[2]; [10],"increased the distance travelled in comparison with the Sham group during both the dark and light phase on days 1, 2 and 3"
same,Distance travelled during the 12-h light phase,[2]; [10],"increased the distance travelled in comparison with the Sham group during both the dark and light phase on days 1, 2 and 3"
same,Total distance travelled during the full 24-h period,[2]; [10],"increased the distance travelled in comparison with the Sham group during days 1, 2 and 3"
same,Distance travelled during the 12-h dark phase,[2]; [11],higher
same,Distance travelled during the 12-h light phase,[2]; [11],higher
same,Total distance travelled during the full 24-h period,[2]; [11],higher
same,Difference of distance travelled between the dark phase and the light phase,"[2]; 128 mg/kg p.o., vs. Control (fatigue) group, listed as NLS-4",higher or tended to be higher; also recorded: increased
same,Distance travelled during the 12-h dark phase,[2]; [12],"increased the distance travelled in comparison with the Sham group during both the dark and light phase on days 1, 2 and 3"
same,Distance travelled during the 12-h light phase,[2]; [12],"increased the distance travelled in comparison with the Sham group during both the dark and light phase on days 1, 2 and 3"
same,Total distance travelled during the full 24-h period,[2]; [12],"increased the distance travelled in comparison with the Sham group during days 1, 2 and 3"
same,Distance travelled during the 12-h dark phase,[2]; [13],higher
same,Distance travelled during the 12-h light phase,[2]; [13],higher
same,Total distance travelled during the full 24-h period,[2]; [13],higher
same,Difference of distance travelled between the dark phase and the light phase,"[2]; 256 mg/kg p.o., vs. Control (fatigue) group, listed as NLS-4",higher or tended to be higher; also recorded: increased
same,Difference of distance travelled between the dark phase and the light phase,[2]; [14],increased the distance travelled in comparison with the Sham group during day 3 only
same,Distance travelled during the 12-h dark phase,[2]; [14],"increased the distance travelled in comparison with the Sham group during both the dark and light phase on days 1, 2 and 3"
same,Distance travelled during the 12-h light phase,[2]; [14],"increased the distance travelled in comparison with the Sham group during both the dark and light phase on days 1, 2 and 3"
same,Total distance travelled during the full 24-h period,[2]; [14],"increased the distance travelled in comparison with the Sham group during days 1, 2 and 3"
same,"Distance travelled during the dark phase (2-h period analysis), dose relation",[2]; 16-256 mg/kg p.o.,dose-dependently increased
same,Period after administration during which the distance travelled was dramatically increased,[2]; 64-256 mg/kg p.o.,10 h
